Measured values as given in paper PMC11407620, “Repurposing auranofin and meclofenamic acid as energy-metabolism inhibitors and anti-cancer drugs” (PLOS ONE, 2024).

Legend:
GAPDH = test system: GAPDH; set-up: method as in PMID 36560881; settings: OVCAR-8 cells; Aur 2.5 μM/ 8 h; cited from earlier work
Breast MDA-MB-468 cells = assay: Cell proliferation, 24 h drug exposure; type: cell-based, human
Method: (§1) All metastatic (breast MDA-MB231, MDA-MB468, cervix HeLa, prostate PC3, colorectal HCT116, COLO205, glioblastoma U373), low-metastatic (breast MCF-7) cancer and non-cancer (fibroblast 3T3, cardiomyocytes H9C2) cell lines (American Type Culture Collection, Rockville, MD, USA) used in this study were cultured in Petri dishes in 20 mL of Dulbecco’s Modified Eagle’s Medium (DMEM, Sigma, MO, USA) supplemented with 10% fetal bovine serum (Biowest, Mexico) and 10,000 U penicillin/streptomycin (Sigma-Aldrich, MO, USA). […] For growth and maintenance, cells were incubated in 5% CO2/95% air at 37°C and kept until 80–90% of confluence was reached. Then, cells were harvested, washed by centrifugation and resuspended in Krebs-Ringer buffer (KR, 125 mM NaCl, 5 mM KCl, 25 mM Hepes, 1 mM MgCl2, 1 mM KH2PO4, 1.4 mM CaCl2, pH 7.4) for further use. For experimentation, cancer cells (3–5 x 10^6 cells) were cultured in DMEM (with 25 mM glucose) for 24 h in the absence of drugs. Afterwards, old-medium was replaced with fresh DMEM medium (with 25 mM glucose) in the absence (control, non-treated cells) or in the presence of logarithmic concentrations of Aur and MA for 24 h more, under the same culture conditions described above. Viability of cultured cells was determined by the trypan blue exclusion assay. The protein concentration was determined by the Lowry method.
(§2) For cell proliferation in the presence of drugs, cancer cells (20 x 10^3 cells/well) were grown in 96-well plates containing DMEM (Sigma-Aldrich) plus 10% bovine fetal serum for 24 h. Afterwards, Aur or MA (0.01, 0.1, 10 and 100 μM) were added to the cell cultures and incubated for additional 24 h. The effect of these drugs on cell proliferation was determined in 96-well plates by the MTT (3-[4,5-dimethyl-thiazol-2-yl]-2,5-diphenyltetrazolium bromide) assay. The viability of cancer cells was > 95% after treatment with drugs.

Colorectal COLO205 cells = assay: Cell proliferation, 24 h drug exposure; type: cell-based, human
Method: as §1, §2

HeLa cells [1] = assay: ROS production and total content (DHE); type: cell-based, human; settings: Aur 1.7 μM, 24 h
Method: Fig 3 Radical oxygen species in Aur-treated cancer cells. (A) ROS production and (B) ROS total content in DHE loaded-metastatic cancer cells. The 100% fluorescence corresponds to 1.9 ± 0.26 (n = 3); 1.2 ± 0.09 (n = 3); and 0.64 (n = 2) fluorescence arbitrary units for HeLa, MDA-MB-231 and U373 cells, respectively. The Aur concentration added was 1.7, 0.8 and 0.6 μM for HeLa, MDA-MB-231 and U373 cells, respectively. The contents of ROS shown were determined at the 120 min end-point, after adding 25 μM DHE. *p < 0.05 vs. Control (Non- treated cells).

HeLa cells [2] = assay: Mitophagy assay (MTG/LTR co-localization); type: cell-based, human; settings: Aur 1.7 μM, 24 h
Method: The selective removal of damaged/inhibited mitochondria by autophagosomes and lysosomes (i.e., mitophagy) was detected by using an EVOS epifluorescence cell imaging microscope (ThermoFisher, Waltham MA, USA). HeLa cells (5 × 10^4 cells/mL) were cultured in 2 mL DMEM in glass bottom culture dishes and exposed to Aur for 24 h. HeLa cells were incubated with 400 nM Hoechst (Bis-Benzimide H 33342 trihydrochloride), 500 nM MitoTracker-Green FM and 500 nM LysoTracker-Red for 30 min at 37°C for nuclei, mitochondria and lysosome detection, respectively. Afterwards, cells were washed, resuspended with DMEM medium without red phenol and placed in the EVOS microscope for their analysis.
To establish which cell processes were associated to Aur-dependent OxPhos inhibition, mitochondrial digestion (mitophagy) and ROS production were assayed in HeLa cells (Fig 2). Mitophagy is the selective removal of dysfunctional or damaged mitochondria by autophagosomes, which is triggered by mitochondrial inner membrane depolarization and the generation of reactive oxygen species (ROS). Mitophagy was assessed by the number of lysosomes and their co-localization with mitochondria in LTR/MTG-loaded cells by epifluorescence microscopy. […] In addition, dead cells were previously removed for the dye loading procedure, thus discarding unspecific drug effects on mitophagy. […]

Glioblastoma U373 cells = assay: Cell proliferation, 24 h drug exposure; type: cell-based, human
Method: as §1
as §2, with “Afterwards, Aur or MA (0.01, 0.1, 10 and 100 μM) were added to the cell cultures and incubated for additional 24 h.” left out

[3] = test system: HeLa, MDA-MB-231 and MDA-MB-468 cells; assay: Cell migration, wound healing assay; type: cell-based, human; settings: Aur at IC50 (1.7, 0.8, 2 μM); 24 h
Method: The wound healing assay was performed for cell migration detection. In petri dishes with full DMEM, cancer cells (5 x 10^6 cells/well) were cultured at 37°C under 95% air and 5% CO2 until 80–90% confluence was attained. Afterwards, cell culture was wounded with a 1 mL pipette tip, washed twice with PBS (155 mM NaCl, 1.5 mM KH2PO4, 2.7 mM NaH2PO4, pH 7.2) and subsequently incubated at 37°C with fresh non-serum DMEM. Cellular migration images were taken in an inverted microscope (Zeiss, Thornwood, NY, USA) after 0 and 24 h incubation time. Using a graduated reticule (Zeiss, Thornwood, NY, USA), cellular migration was assessed from the petri dish’s border to its center distance travelled.
The Aur concentration added was 1.7, 0.8 and 2 μM for HeLa, MDA-MB-231 and MDA-MB-468 cells, respectively. n = 3; *p < 0.05, **p<0.01 vs. Control (Non-treated cells).

**Q.** For `CC(=O)OC[C@H]1O[C@@H]([S-])[C@H](OC(C)=O)[C@@H](OC(C)=O)[C@@H]1OC(C)=O.CCP(CC)CC.[Au+]` [Aur, [1-(thio-κS)-β-D-glucopyranose-2,3,4,6-tetraacetyl] (triethylphosphine)-gold], which “lower GAPDH activity vs. non-treated cells” value (GAPDH) is on record?
**A.** The value was 40%.

**Q.** And the IC50 (Breast MDA-MB-468 cells; Breast MDA-MB-468, 24 h, read-out: IC50 for proliferation cell rate)?
**A.** The IC50 was 2000 ± 1000 nM.

**Q.** And the “TI ratio (3T3/ cancer cells)” value (Breast MDA-MB-468 cells; IC50 3T3 / IC50 MDA-MB-468)?
**A.** Its value is 21.

**Q.** What about the “TI ratio (H9C2/cancer cells)” value (Breast MDA-MB-468 cells; IC50 H9C2 / IC50 MDA-MB-468) of the same compound?
**A.** The value was 39.

**Q.** And the IC50 (Colorectal COLO205 cells; Colorectal COLO205, 24 h, read-out: IC50 for proliferation cell rate)?
**A.** The IC50 was 6000 ± 2000 nM.

**Q.** What about the “TI ratio (3T3/ cancer cells)” value (Colorectal COLO205 cells; IC50 3T3 / IC50 COLO 205) of the same compound?
**A.** The value was 7.

**Q.** And the “TI ratio (H9C2/cancer cells)” value (Colorectal COLO205 cells; IC50 H9C2 / IC50 COLO 205)?
**A.** The value was 13.

**Q.** And the ROS production rate (HeLa cells [1])?
**A.** The ROS production rate was “did not bring about increments”.

**Q.** And the “total ROS levels after 2 h measurement” value (HeLa cells [1])?
**A.** Its value is “did not bring about increments”.

**Q.** What about the “mitophagy (MTG mitochondria/LTR lysosomes co-localization)” value (HeLa cells [2]) of the same compound?
**A.** The value was “significant enhancement”.

**Q.** And the IC50 (Glioblastoma U373 cells; Glioblastoma U373, 24 h, read-out: IC50 for proliferation cell rate)?
**A.** The IC50 was 600 ± 100 nM.

**Q.** And the “TI ratio (3T3/ cancer cells)” value (Glioblastoma U373 cells; IC50 3T3 / IC50 U373)?
**A.** Its value is 70.

**Q.** What about the “TI ratio (H9C2/cancer cells)” value (Glioblastoma U373 cells; IC50 H9C2 / IC50 U373) of the same compound?
**A.** The value was 130.

**Q.** And the inhibition of migration [3]?
**A.** Its inhibition of migration is 90–95%.
